The values that follow come from patent US5380759A, “Methyl N-[6-(3,4,5-trimethoxybenzloxy)imidazo[1,2-b]pyridazin-2-zyl]carbamate used to treat leukemia” (priority 1987, dated 1995).

Broadly, the LD50 is the dose expected to kill half of the subjects tested. A higher LD50 goes with lower toxicity. As usually defined, the IC50 is the concentration that gives 50% inhibition.

The nature of one data set: LD20 (Mouse). In kind it is in vivo. The note with it: i.p. days 1, 5 and 9, CD2-F1 mice, observed up to 14 days.
A further data set deals with M5076. The data set is described as follows: In vivo activity against murine tumour M5076. More on the design: species or system mouse. The following applies: 5 mg/kg i.p. days 1, 5 and 9; 1 expt. The method, then:
(§1) CD2-F1 mice, of the same sex, weighing within a 3 gram range surrounding 20 g, are used for this test. Control and test animals are injected intraperitoneally with a suspension of 10^6 viable P388/O tumour cells on day 0. In each test several dose levels which bracket the LD20 for the compound are evaluated; each dose level group contains 6 animals. The test compounds are prepared either in physiologic saline containing 0.05% Tween 80 or distilled water containing 5% dextrose and are administered intraperitoneally on days 1,5 and 9 relative to tumour implant. Doses are on a mg/kg basis according to individual animals' body weights. The day of death for each animal is recorded and the median day of death identified for each group. The difference between the median survival time for treated and control groups is expressed as a percentage increase in life span (% ILS).
G. In vivo activity of the compound of Example 1 against murine tumours
Using a similar procedure to the Lymphocytic Leukaemia P388/O test the compound of Example 1 was evaluated against the murine tumours B16, L1210 and M5076. A suspension of 10^6 tumour cells is implanted intraperitoneally into control and test animals on day zero. B16 tumour cells are administered intraperitoneally as a 1:10 Brei of cells on day zero. […] The day of death for each animal is recorded and the %ILS (percentage increase in life-span) calculated.

The test system of another data set is P388/MTX. The data set is described as follows: In vivo activity against drug resistant tumour P388/MTX. More on the design: species or system mouse. The note with it: optimum dose 7.5 mg/kg. The method, then: as §1
(§2) E. Activity Against Drug-Resistant Tumours
(§3) Using a similar procedure to the Lymphocytic Leukaemia P388/O test, the compound of Example 1 was evaluated against P388/O tumours which had been made resistant to the following standard, clinically used anti-tumour agents: […]

The next data set relates to P388/BCNU. The data set is described as follows: In vivo activity against drug resistant tumour P388/BCNU. More on the design: species or system mouse. The note with it: optimum dose 7.5 mg/kg. As to the method: as §1, §2
Using a similar procedure to the Lymphocytic Leukaemia P388/O test, the compound of Example 1 was evaluated against P388/O tumours which had been made resistant to the following standard, clinically used anti-tumour agents:
bis-chloronitrosourea (BCNU)

Data set [1] relates to WiDr human colon adenocarcinoma cells. The data set is described as follows: In vitro activity against human tumour cell line WiDr (proliferation). The note with it: 96 h, MTT, read-out: IC50. Format: cell-based. The method, then: (§4) Cells from the human tumour cell lines DLD-1, HCT-116, WiDr and A549 are exposed to serially diluted concentrations of test compounds over a 96 hour period in culture. The ability of such cells to proliferate over the test period is determined.
(§5) Cells in log growth are plated into 96 well multiwell tissue culture dishes in 100 μl/well of RPMI 1640 culture medium supplemented with 10% foetal calf serum, antibiotics and test compound. All compounds are formulated initially at appropriate concentrations in DMSO, the final concentrations in this solvent being twenty times that required in the plate. A final 1 in 10 dilution in complete medium is then made before adding 100 μl to each well of the plate. All compounds are evaluated at concentrations ranging serially in four fold decrements from a top concentration some four fold greater than that already known to inhibit the proliferation of cells from the mouse lymphoid neoplasm, P388D1 by about 80 to 90 percent in a primary proliferative assay.
(§6) After 96 hours the proliferation of cells exposed to test compound is compared with control untreated cells by one of two methods:
(§7) b) 20 μl of MTT (5 mg/ml in PBS) is added to each well. After an incubation period of 4 hours the medium from each well is aspirated and replaced with 200 μl DMSO to dissolve the formazan crystals formed. Absorbances are read by an ELISA plate spectrophotometer at a wavelength of 540 nm. The IC50 is defined as that concentration of drug which decreases absorbance to 50% of that in control (drug-free) cultures. This method is used for the WiDr, HCT-116 and A549 cell lines.

In a further data set the test system is L1210. The data set is described as follows: In vivo activity against murine tumour L1210. More on the design: species or system mouse.
A further data set concerns P388/5FU. The data set is described as follows: In vivo activity against drug resistant tumour P388/5FU. The note with it: optimum dose 10.0 mg/kg. More on the design: species or system mouse. As to the method:
as §1, §2, §3

Data set [2] has as its system DLD-1 human colon carcinoma cells. The data set is described as follows: In vitro activity against human tumour cell line DLD-1 (proliferation). Format: cell-based. The following applies: DLD-1, 96 h, methylene blue, read-out: IC50. The method, then:
as §4, §5, §6
a) Culture supernatants are aspirated and cells fixed and stained by adding a solution of methylene blue (5 g per liter of 50% ethanol: water, 100 μl/well). After 30 minutes at room temperature unbound stain is washed off by immersing plates in water. Stained cells are solubilised overnight using 1% Sarkosyl (Sigma) in phosphate-buffered saline (100 μl/well). Absorbances are read by an ELISA plate spectrophotometer at a wavelength of 620 nm. The IC50 is defined as that concentration of drug which decreases absorbance to 50% of that in control (drug-free) cultures. This method is used for the DLD-1 cell line.

In data set [3] the test system is HCT-116 human colon carcinoma cells. The data set is described as follows: In vitro activity against human tumour cell line HCT-116 (proliferation). In kind it is cell-based. The following applies: HCT-116, 96 h, MTT, read-out: IC50. The method, then: as §4, §5, §6, §7
The test system of the next data set is P388/ActD. The data set is described as follows: In vivo activity against drug resistant tumour P388/ActD. More on the design: species or system mouse. The note with it: optimum dose 12.5 mg/kg. The method, then:
as §1, §2, §3

A further data set deals with P388/VCR. The data set is described as follows: In vivo activity against drug resistant tumour P388/VCR. More on the design: species or system mouse. The following applies: optimum dose 12.5 mg/kg. The method, then:
as §1, §2, §3

For the compound `COC(=O)Nc1cn2nc(OCc3cc(OC)c(OC)c(OC)c3)ccc2n1` [Example 1, Methyl N-[6-(3,4,5-trimethoxybenzyloxy)imidazo[1,2-b]pyridazin-2-yl]carbamate], the median lethal dose (LD50) in the data set “LD20 (Mouse)” fell in the range of 20 to 30 mg/kg. Besides, the “Mean % ILS (±SEM)” value is 28% in the data set with M5076; 134 (±72) % with L1210 (10 mg/kg i.p. days 1, 5 and 9, 2 expts). The “60 Day Survivors” value in the data set on P388/MTX was 1/6; in the data set on P388/BCNU, 0/6; with P388/5FU, 0/6; in the data set on P388/ActD, 1/6; in the data set with P388/VCR, 3/6. Moreover, the “% ILS” value is given as “+100%” in the data set on P388/MTX; “+131%” in the data set with P388/BCNU; “+92%” with P388/5FU; “+109%” with P388/ActD; “+145%” in the data set with P388/VCR. For the same compound, the IC50 in data set [1] was determined as 30 nM; in [2] it was 11.6 nM; in data set [3], 9.2 nM. The “activity in vivo against L1210 leukaemia” value with L1210 (in words) is on record as “good activity”.
